{
  "source": "patent US6331555A",
  "about": "“Treatment of platelet derived growth factor related disorders such as cancers” (priority 1999, dated 2001)",
  "key": {"[1]": {"system": "NIH3T3 cells overexpressing the human PDGF-b receptor", "assay": "PDGF-stimulated cell cycle progression, flow cytometry", "type": "cell-based, mouse", "method": "NIH3T3 mouse fibroblasts overexpressing the human PDGF-β receptor were seeded in DMEM supplemented with 10% CS and 2 mM GLN. Cells were grown to about 80% confluence and then treated overnight in serum-free medium (DMEM, 2 mM GLN, 2 mM NEAA, 2 mM NaPyr, and 2 mM HEPES). […] Cells were then collected, strained and analyzed by flow cytometry for DNA content.\nThe percentage of cells in the S phase of the cell cycle was determined by flow cytometry.\nThe cells were analyzed for DNA content by flow cytometry."}, "[2]": {"system": "glioblastoma multiformae (GBM) primary tumor cells", "assay": "Growth of primary tumor cells from glioblastoma patients", "type": "cell-based, human", "method": "Viable tumors were placed into medium by the pathologist at the referring institution immediately after surgery, and shipped to Oncotech by overnight delivery. As soon as a tumor was received, a portion was fixed in formalin for sectioning and the remainder trimmed of necrotic, connective and adipose tissues. All tumor manipulations were performed aseptically. The remaining tumor was placed into a Petri dish containing 5 mL of medium (RPMI 1640 supplemented with 10% FBS, 100 IU/mL penicillin, […] streptomycin and L-glutamine) and disaggregated mechanically with scissors into pieces 2 mm or smaller. […]\nAfter enzymatic dispersion into a near single-cell suspension, tumor cells were filtered through nylon mesh, washed in medium, suspended in soft agarose (0.12%) and plated at approximately 20,000 cells per well onto an agarose underlayer (0.4%) in 24-well plates. […] After the appropriate labeling period, tissue culture plates were heated at 60° C. to melt the agarose, the cells harvested with a micro-harvester onto glass fiber filters and the radioactivity determined. Percent inhibition (PCI) was determined using the formula: PCI=1-(CPM treatment group […] CPM control group). Determinations of control group proliferation were performed in quadruplicate, while treatment group proliferation was determined in triplicate. […]"}, "A549 lung tumor": {"system": "A549 lung tumor", "assay": "SC xenograft in mice", "type": "in vivo, human", "method": "(§1) Cell lines were grown in appropriate medium (see Appendix 1). Cells were harvested at or near confluency with 0.05% Trypsin-EDTA and pelleted at 450×g for 10 min. Pellets were resuspended in sterile PBS or media (without FBS) to a particular concentration and the cells were implanted into the hindflank of mice. Tumor growth was measured over 3 to 6 weeks using venier calipers. Tumor volumes were calculated as a product of length×width×height unless otherwise indicated. P values were calculated using the Students' t-test."}, "Calu-6 lung tumor": {"system": "Calu-6 lung tumor", "assay": "SC xenograft in mice", "type": "in vivo, human", "conditions": "nu/nu, 20 mg/kg/day, day 28", "method": "as §1"}, "MCF7 mammary tumor": {"system": "MCF7 mammary tumor", "assay": "SC xenograft in mice", "type": "in vivo, human", "method": "as §1"}, "PA-1 ovarian tumor": {"system": "PA-1 ovarian tumor", "assay": "SC xenograft in mice", "type": "in vivo, human", "conditions": "nu/nu, 20 mg/kg/day, day 36", "method": "as §1"}, "SF763T glioma": {"system": "SF763T glioma", "assay": "SC xenograft in mice", "type": "in vivo, human", "method": "as §1"}, "U118T glioma": {"system": "U118T glioma", "assay": "SC xenograft in mice", "type": "in vivo, human", "conditions": "nu/nu, 15 mg/kg/day, day 47", "method": "as §1"}, "C6 cells": {"system": "C6 cells", "assay": "CTL generation in tumor-bearing rats (MLTC)", "type": "in vivo, rat", "conditions": "8.4 mg/kg/day", "method": "Wistar rats received SC implants of C6 cells on day 0. […] The control group was not treated after tumor implantation. On day 21, the animals were sacrificed and the spleens were removed for in vitro analyses. Splenocytes were stimulated with ConA, LPS, and alloantigen (DA rat spleen cells) as in the murine studies.\nThe spleen cells from Wistar rats were also assayed for the generation of C6-specific CTL in the MLTC and the results summarized in Table XXI. Spleen cells from tumor-bearing, untreated animals mounted a vigorous CTL response (35% specific lysis at E:T=100:1), while cells from non-tumor bearing control rats mounted a weak response (13% specific lysis at E:T=100:1). Similar to the studies in BALB/c mice, it appeared that the vehicle inhibited the generation of CTL in a 7-day culture."}, "[3]": {"type": "in vivo, mouse", "conditions": "IP A10 40 mg/kg single dose", "method": "Plasma was prepared and frozen in liquid nitrogen. Tissues and organs were resected and immediately frozen in liquid nitrogen. After the addition of an internal standard, plasma samples were acidified with HCl and extracted with acetonitrile. The acetonitrile fraction was evaporated to dryness in a vacuum centrifuge with heating and redissolved in methanol. Tissue and organ samples were homogenized according to the weight ratio of 1:5 (w:v) in 50 mM Tris-HCl, pH 7.4, at 20,000 rev/min, using a tissue homogenizer (Brinkmann Polytron Model PT3000). After the addition of an internal standard, the homogenate was acidified with HCl and then extracted with acetonitrile. The acetonitrile fraction was then extracted with an equal volume of diethyl ether. The ether fraction was evaporated to dryness in a vacuum centrifuge with heating and redissolved in methanol.\nSamples for HPLC analysis were injected onto a Hewlett Packard Hypersil 5-μm C18 cartridge column (100×4.6 mm). […] The compounds were monitored by UV absorption at 254 nm using a Hewlett-Packard diode-array detector (HP Model 1090). Plasma and tissue concentrations were determined from standard curves using peak area for quantitation. […]\nTable XXII. […] Plasma and brain samples were prepared and analyzed by HPLC as described in Appendix 6. All results were calculated by the method of internal standardization. NT= not tested, ND= not detected."}},
  "data": [
    {"smiles": "Cc1oncc1C(=O)Nc1ccc(C(F)(F)F)cc1", "note": "[Compound A10, 5-methylisoxazole-4 carboxylic acid-(4-trifluromethyl)-anilide]", "values": [
      {"measurement": "number of cells progressing to the S phase in response to PDGF", "setting": "[1]", "result": "dose-dependent decrease in the number of cells progressing to the S phase"},
      {"measurement": "tumor cell growth", "setting": "[2]; 0 to 400 mM", "result": "tumor cell growth decreased for both types of tumors"},
      {"measurement": "IC50", "setting": "[2]; Homo sapiens, range over six patients, read-out: IC50, GBM tumors", "result": "39 to 198", "unit": "µM"},
      {"measurement": "growth of xenograft", "setting": "A549 lung tumor; 12 to 20 mg/kg/day", "result": "failed to significantly inhibit the growth"},
      {"measurement": "% Inhibition", "setting": "A549 lung tumor; SCID, 15 mg/kg/day, day 48, treatment from day 29", "result": 19, "unit": "%"},
      {"measurement": "% Inhibition", "setting": "Calu-6 lung tumor", "result": 64, "unit": "%"},
      {"measurement": "growth of xenograft", "setting": "MCF7 mammary tumor; 12 to 20 mg/kg/day", "result": "failed to significantly inhibit the growth"},
      {"measurement": "% Inhibition", "setting": "MCF7 mammary tumor; SCID, 15 mg/kg/day, day 27, treatment from day 8", "result": 8, "unit": "%"},
      {"measurement": "% Inhibition", "setting": "PA-1 ovarian tumor", "result": 53, "unit": "%"},
      {"measurement": "% Inhibition", "setting": "SF763T glioma; 20 mg/kg", "result": 89, "unit": "%"},
      {"measurement": "% Inhibition", "setting": "SF763T glioma; nu/nu, 20 mg/kg/day, day 22", "result": 85, "unit": "%"},
      {"measurement": "In Vivo inhibition", "setting": "SF763T glioma; xenografted athymic mice", "result": 89, "unit": "%"},
      {"measurement": "% Inhibition", "setting": "U118T glioma", "result": 57, "unit": "%"},
      {"measurement": "CTL generation", "setting": "C6 cells", "result": "did not overcome the inhibitory effect of the vehicle in immunocompetent rats"},
      {"measurement": "CTL activity", "setting": "C6 cells; Tumor stimulus", "result": 0},
      {"measurement": "time by which A10 completely converted and undetectable", "setting": "[3]", "result": "≤ 1", "unit": "h"}
    ]}
  ]
}
